The values below come from EP1523993A1, “Polypeptide compositions with improved stability” (Eli Lilly & Company, priority 1999, dated 2001).

The subject of series [1] is Humulin® N (U40). Description: Modified 10X Glycerin Stress Test (Mod.10X-GST): HMWP growth by size exclusion HPLC. Type of series: physicochemical, human. The procedure:
One milliliter of Humulin® N (U40, Eli Lilly & Co., Indianapolis IN, USA) is spiked with about 160 mg (about 128 µl) of glycerin to be tested. This glycerin level is about ten times the normal level found in commercial products. Another milliliter of Humulin® N U40 is spiked with 128 µL of water. Both samples are stored at 30°C for 7 days. The high molecular weight protein (HMWP) level of the two samples is then measured by size exclusion HPLC chromatography under denaturing conditions [e.g., Waters column labeled "Protein-Pak 125 insulin assay certified", Waters Corporation (Milford, MA, USA) part number 20574; mobile phase 65 parts of a 1 mg/mL L-arginine solution, 20 parts of acetonitrile and 15 parts of glacial acetic acid]. The test samples are solubilized by acidification with a small volume of 9.6 N HCl prior to analysis.
The HMWP growth in the sample is calculated as the HMWP level in the 30°C test sample minus the HMWP level in the water spiked control. Percent growth is reported per 7 day period.
(SEC sorts molecules by how far they enter the pores of the column.)

Series [2] deals with Humulin® R (U40). Description: 10X Glycerin Stress Test (10X-GST): HMWP growth by size exclusion HPLC. In kind it is physicochemical, human. The following applies: Humulin® R with 160 mg/mL glycerin, 7 days at 30°C minus frozen control. As to the method:
The 10X Glycerin Stress Test (10X-GST) measures the formation of covalent dimers and polymers in an insulin composition. Glycerin to be tested is added to Humulin® R (U40, Eli Lilly & Co., Indianapolis IN, USA) to a final concentration of 160 mg/mL of glycerin, i.e., ten times the level of glycerin normally used in this formulation. One aliquot of the resulting formulation is incubated at 30°C for 7 days, while a second aliquot is stored frozen over the same time period. Then, the high molecular weight protein (HMWP) level of the two aliquots is measured by size exclusion HPLC chromatography under denaturing conditions (e.g., Zorbax GF 250 Special column; mobile phase 65 parts of 0.1M ammonium phosphate buffer at pH 7.5 and 35 parts acetonitrile; detection at 214 nm). The growth of HMWP in the test formulation is the concentration of HMWP in the 30°C sample minus the concentration of HMWP in the frozen control.

[3] abbreviates: Humulin® N with treated or untreated glycerin, 7 days at 30°C, Table 7.
Where [4] appears, read: Humulin® N spiked with about 160 mg glycerin per mL, 7 days at 30°C minus water spiked control, Table 5.

For the compound `OCC(O)CO` [Sample 1, glycerin], the “Mod.10X-GST Test” value in series [1] (setting [3]) was found to be 1.84%.
Take `OCC(O)CO` [Sample 5, glycerin]: the “Mod.10X-GST Test” value in series [1] (setting [3]) is reported as -0.27%.
As for `OCC(O)CO` [Sample 7, glycerin], the “10X-GST Test” value in series [2] was found to be 0.22. In addition, the “Mod.10X-GST Test” value in series [1] (setting [4]) is reported as 0.09%; in series [1] (setting [3]), 3.65%.
As for `OCC(O)CO` [Sample 6, glycerin], in series [2], the “10X-GST Test” value is 0.13. Besides, the results for the “Mod.10X-GST Test” value in series [1] (setting [4]) and in series [1] (setting [3]) were 0.13% and 4.68%, respectively.
For the compound `OCC(O)CO` [Sample 8, glycerin], in series [2], the “10X-GST Test” value came to 0.01. Besides, in series [1] (setting [4]), the “Mod.10X-GST Test” value is 0.17%.
`OCC(O)CO` [Sample 10, glycerin]: in series [1] (setting [3]), the “Mod.10X-GST Test” value is -0.03%.
Same read-out and setting: with `OCC(O)CO` [Sample 2, glycerin] the figure was 1.58%.
